Laboratory results as given in ChEMBL document CHEMBL1148995, “Antitumor agents from bohemic acid complex, VI. Schaunardimycin” (J Nat Prod, 1984).

Key:
[1] = system: Mus musculus; assay: Toxicity in mouse L1210 cells implanted CDF1 mouse assessed as survivors on day 5 at 6.4 mg/kg, ip single dose on day 1; assay type: organism-based; parameters: dose 6.4 mg/kg, route intraperitoneal; details: in vivo
[2] = system: Mus musculus; assay: Toxicity in mouse L1210 cells implanted CDF1 mouse assessed as average weight gain at 3.2 mg/kg, ip single dose on day 1; assay type: organism-based; parameters: dose 3.2 mg/kg, route intraperitoneal; details: in vivo
[3] = system: L1210; assay: Antitumor activity against mouse L1210 cells implanted in CDF1 mouse assessed as median survival time at 0.2 mg/kg, ip single dose on day 1; assay type: functional; details: route intraperitoneal
[4] = system: Mus musculus; assay: Toxicity in mouse L1210 cells implanted CDF1 mouse assessed as survivors on day 5 at 1.6 mg/kg, ip single dose on day 1; assay type: organism-based; parameters: dose 1.6 mg/kg, route intraperitoneal; details: in vivo
[5] = system: L1210; assay: Antitumor activity against mouse L1210 cells implanted in CDF1 mouse at 3.2 mg/kg, ip single dose on day 1 relative to control; assay type: functional; details: route intraperitoneal
[6] = system: Mus musculus; assay: Toxicity in mouse L1210 cells implanted CDF1 mouse assessed as average weight gain at 0.4 mg/kg, ip single dose on day 1; assay type: organism-based; parameters: dose 0.4 mg/kg, route intraperitoneal; details: in vivo
[7] = system: Mus musculus; assay: Toxicity in mouse L1210 cells implanted CDF1 mouse assessed as average weight gain at 1.6 mg/kg, ip single dose on day 1; assay type: organism-based; parameters: dose 1.6 mg/kg, route intraperitoneal; details: in vivo
[8] = system: L1210; assay: Antitumor activity against mouse L1210 cells implanted in CDF1 mouse at 0.2 mg/kg, ip qd for 1 to 5 days relative to control; assay type: functional; details: route intraperitoneal
[9] = system: L1210; assay: Antitumor activity against mouse L1210 cells implanted in CDF1 mouse assessed as median survival time at 6.4 mg/kg, ip single dose on day 1; assay type: functional; details: route intraperitoneal
[10] = system: L1210; assay: Antitumor activity against mouse L1210 cells implanted in CDF1 mouse at 1.6 mg/kg, ip single dose on day 1 relative to control; assay type: functional; details: route intraperitoneal
[11] = system: L1210; assay: Antitumor activity against mouse L1210 cells implanted in CDF1 mouse at 6.4 mg/kg, ip single dose on day 1 relative to control; assay type: functional; details: route intraperitoneal
[12] = system: Mus musculus; assay: Toxicity in mouse L1210 cells implanted CDF1 mouse assessed as average weight gain at 0.8 mg/kg, ip single dose on day 1; assay type: organism-based; parameters: dose 0.8 mg/kg, route intraperitoneal; details: in vivo
[13] = system: L1210; assay: Antitumor activity against mouse L1210 cells implanted in CDF1 mouse assessed as median survival time at 0.4 mg/kg, ip single dose on day 1; assay type: functional; details: route intraperitoneal
[14] = system: Mus musculus; assay: Toxicity in mouse L1210 cells implanted CDF1 mouse assessed as survivors on day 5 at 0.4 mg/kg, ip single dose on day 1; assay type: organism-based; parameters: dose 0.4 mg/kg, route intraperitoneal; details: in vivo
[15] = system: L1210; assay: Antitumor activity against mouse L1210 cells implanted in CDF1 mouse assessed as median survival time at 0.8 mg/kg, ip single dose on day 1; assay type: functional; details: route intraperitoneal
[16] = system: Mus musculus; assay: Toxicity in mouse L1210 cells implanted CDF1 mouse assessed as survivors on day 5 at 0.8 mg/kg, ip single dose on day 1; assay type: organism-based; parameters: dose 0.8 mg/kg, route intraperitoneal; details: in vivo
[17] = system: Mus musculus; assay: Toxicity in mouse L1210 cells implanted CDF1 mouse assessed as average weight gain at 12.8 mg/kg, ip single dose on day 1; assay type: organism-based; parameters: dose 12.8 mg/kg, route intraperitoneal; details: in vivo
[18] = system: Mus musculus; assay: Toxicity in mouse L1210 cells implanted CDF1 mouse assessed as average weight gain at 0.2 mg/kg, ip single dose on day 1; assay type: organism-based; parameters: dose 0.2 mg/kg, route intraperitoneal; details: in vivo
[19] = system: L1210; assay: Antitumor activity against mouse L1210 cells implanted in CDF1 mouse at 12.8 mg/kg, ip single dose on day 1 relative to control; assay type: functional; details: route intraperitoneal
[20] = system: L1210; assay: Antitumor activity against mouse L1210 cells implanted in CDF1 mouse at 0.4 mg/kg, ip single dose on day 1 relative to control; assay type: functional; details: route intraperitoneal
[21] = system: L1210; assay: Antitumor activity against mouse L1210 cells implanted in CDF1 mouse assessed as median survival time at 1.6 mg/kg, ip single dose on day 1; assay type: functional; details: route intraperitoneal
[22] = system: L1210; assay: Antitumor activity against mouse L1210 cells implanted in CDF1 mouse assessed as median survival time at 3.2 mg/kg, ip single dose on day 1; assay type: functional; details: route intraperitoneal
[23] = system: L1210; assay: Antitumor activity against mouse L1210 cells implanted in CDF1 mouse at 0.2 mg/kg, ip single dose on day 1 relative to control; assay type: functional; details: route intraperitoneal
[24] = system: L1210; assay: Antitumor activity against mouse L1210 cells implanted in CDF1 mouse assessed as median survival time at 12.8 mg/kg, ip single dose on day 1; assay type: functional; details: route intraperitoneal
[25] = system: Mus musculus; assay: Toxicity in mouse L1210 cells implanted CDF1 mouse assessed as survivors on day 5 at 3.2 mg/kg, ip single dose on day 1; assay type: organism-based; parameters: dose 3.2 mg/kg, route intraperitoneal; details: in vivo
[26] = system: Mus musculus; assay: Toxicity in mouse L1210 cells implanted CDF1 mouse assessed as average weight gain at 6.4 mg/kg, ip single dose on day 1; assay type: organism-based; parameters: dose 6.4 mg/kg, route intraperitoneal; details: in vivo
[27] = system: Mus musculus; assay: Toxicity in mouse L1210 cells implanted CDF1 mouse assessed as median survival time at 25.6 mg/kg, ip single dose on day 1; assay type: organism-based; parameters: dose 25.6 mg/kg, route intraperitoneal; details: in vivo
[28] = system: L1210; assay: Antitumor activity against mouse L1210 cells implanted in CDF1 mouse at 0.8 mg/kg, ip single dose on day 1 relative to control; assay type: functional; details: route intraperitoneal

CC[C@@]1(O)C[C@H](O[C@H]2C[C@H](N(C)C)[C@H](O[C@H]3C[C@H](O)[C@H](O[C@H]4C[C@H](O)[C@H](O)[C@H](C)O4)[C@H](C)O3)[C@H](C)O2)c2c(cc3c(c2O)C(=O)c2c(O)ccc(O)c2C3=O)[C@H]1C(=O)OC [MARCELLOMYCIN]
Activity [1]: Active | Activity [2]: -0.5 g | MST [3]: 6 days | Activity [4]: Active | T/C [5]: 142% | weight gain [6]: 2.8 g | weight gain [7]: 1.4 g | T/C [8]: 117% | MST [9]: 8.5 days | T/C [10]: 133% | T/C [11]: 142% | weight gain [12]: 1.8 g | MST [13]: 6.5 days | Activity [14]: Active | MST [15]: 7 days | Activity [16]: Active | Activity [17]: -1.9 g | weight gain [18]: 2.7 g | T/C [19]: 158% | T/C [20]: 108% | MST [21]: 8 days | MST [22]: 8.5 days | T/C [23]: 100% | MST [24]: 9.5 days | Activity [25]: Active | Activity [26]: -1.7 g | Activity [27]: Toxic | T/C [28]: 117%
